The results in this text go back to BindingDB's records for doi:10.1016/j.ejmech.2014.06.016 (Ocean University of China, 2014).

This data set can be described thus: Inhibition of p-glycoprotein in human MDA435/LCC6MDR cells assessed as concentration required to reduce taxol IC50 by half after 5 days by MTS assay. A general note: Tetrazolium assays rely on reduction of a dye to a coloured formazan, in cell work by metabolically active cells.

For `CCN(CC)c1ccc(Cc2c(Cc3ccc(OC)c(OC)c3)nc(NC(=O)c3cc(OC)c(OC)c(OC)c3)n2C)cc1`, the EC50 came out at 0.213 µM.
The result for `CCN(CC)c1ccc(Cc2c(Cc3ccc(OC)c(OC)c3)nc(N(C(=O)/C=C/c3cc(OC)c(OC)c(OC)c3)C(=O)/C=C/c3cc(OC)c(OC)c(OC)c3)n2C)cc1` reads 0.211 µM.

As a reminder, the EC50 is the concentration that produces a half-maximal response.
